Data on one compound can be found in PMC6386942, “Bisoprolol, Known to Be a Selective β1-Receptor Antagonist, Differentially but Directly Suppresses IK(M) and IK(erg) in Pituitary Cells and Hippocampal Neurons” (International Journal of Molecular Sciences, 2019).

For data set [1], the target named is T1, M-type K+ (KM) channel, KCNQ2 (KV7.2)/KCNQ3 (KV7.3) (Rattus norvegicus, UniProt O88943+O88944).
T1 construct: native channel in pituitary GH3 cells; with KCNQ3 (KV7.3)
The data set can be described thus: whole-cell patch clamp of native IK(M), plus cell-attached single KM channel recordings in GH3 cells. The format is cell-based. In general terms: In patch-clamp work, channel activity is measured electrically.

In data set [2] the target is T2, erg-mediated K+ channel (Kerg, KV11) (Rattus norvegicus, UniProt O08962).
T2 construct: gene Kcnh2; native channel in pituitary GH3 cells
T2 sequence (O08962 1-1163): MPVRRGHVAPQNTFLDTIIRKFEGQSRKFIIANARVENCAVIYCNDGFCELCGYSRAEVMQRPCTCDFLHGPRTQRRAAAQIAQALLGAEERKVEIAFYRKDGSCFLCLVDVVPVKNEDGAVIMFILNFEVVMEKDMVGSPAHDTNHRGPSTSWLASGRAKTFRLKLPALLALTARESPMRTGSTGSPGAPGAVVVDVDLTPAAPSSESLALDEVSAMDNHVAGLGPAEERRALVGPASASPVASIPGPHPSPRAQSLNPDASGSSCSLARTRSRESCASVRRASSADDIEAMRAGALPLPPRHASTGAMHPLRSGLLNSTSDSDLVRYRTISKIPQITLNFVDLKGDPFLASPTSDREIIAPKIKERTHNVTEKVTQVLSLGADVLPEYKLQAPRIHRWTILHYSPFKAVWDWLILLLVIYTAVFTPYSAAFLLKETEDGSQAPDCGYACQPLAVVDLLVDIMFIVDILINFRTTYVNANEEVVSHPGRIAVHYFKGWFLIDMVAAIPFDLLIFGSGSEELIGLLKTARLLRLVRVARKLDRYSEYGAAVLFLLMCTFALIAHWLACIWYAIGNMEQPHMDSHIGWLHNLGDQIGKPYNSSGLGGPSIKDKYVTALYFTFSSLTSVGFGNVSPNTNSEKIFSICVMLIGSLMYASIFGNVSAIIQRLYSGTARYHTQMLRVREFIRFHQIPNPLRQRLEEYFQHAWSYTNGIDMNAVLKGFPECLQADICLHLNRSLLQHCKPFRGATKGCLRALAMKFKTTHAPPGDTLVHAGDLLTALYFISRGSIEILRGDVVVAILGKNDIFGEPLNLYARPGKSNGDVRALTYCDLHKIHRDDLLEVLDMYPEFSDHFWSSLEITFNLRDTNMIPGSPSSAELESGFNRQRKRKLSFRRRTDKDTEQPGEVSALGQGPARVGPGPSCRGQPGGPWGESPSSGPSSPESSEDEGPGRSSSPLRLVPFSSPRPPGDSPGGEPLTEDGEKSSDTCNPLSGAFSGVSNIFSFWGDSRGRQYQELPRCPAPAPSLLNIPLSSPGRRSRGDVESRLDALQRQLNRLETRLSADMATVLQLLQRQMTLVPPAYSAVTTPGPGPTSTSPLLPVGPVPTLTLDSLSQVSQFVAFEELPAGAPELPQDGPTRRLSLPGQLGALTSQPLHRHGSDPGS
The data set can be described thus: whole-cell patch clamp of native IK(erg) in GH3 cells. It is filed as cell-based.

T1 sequence (O88943 whole entry): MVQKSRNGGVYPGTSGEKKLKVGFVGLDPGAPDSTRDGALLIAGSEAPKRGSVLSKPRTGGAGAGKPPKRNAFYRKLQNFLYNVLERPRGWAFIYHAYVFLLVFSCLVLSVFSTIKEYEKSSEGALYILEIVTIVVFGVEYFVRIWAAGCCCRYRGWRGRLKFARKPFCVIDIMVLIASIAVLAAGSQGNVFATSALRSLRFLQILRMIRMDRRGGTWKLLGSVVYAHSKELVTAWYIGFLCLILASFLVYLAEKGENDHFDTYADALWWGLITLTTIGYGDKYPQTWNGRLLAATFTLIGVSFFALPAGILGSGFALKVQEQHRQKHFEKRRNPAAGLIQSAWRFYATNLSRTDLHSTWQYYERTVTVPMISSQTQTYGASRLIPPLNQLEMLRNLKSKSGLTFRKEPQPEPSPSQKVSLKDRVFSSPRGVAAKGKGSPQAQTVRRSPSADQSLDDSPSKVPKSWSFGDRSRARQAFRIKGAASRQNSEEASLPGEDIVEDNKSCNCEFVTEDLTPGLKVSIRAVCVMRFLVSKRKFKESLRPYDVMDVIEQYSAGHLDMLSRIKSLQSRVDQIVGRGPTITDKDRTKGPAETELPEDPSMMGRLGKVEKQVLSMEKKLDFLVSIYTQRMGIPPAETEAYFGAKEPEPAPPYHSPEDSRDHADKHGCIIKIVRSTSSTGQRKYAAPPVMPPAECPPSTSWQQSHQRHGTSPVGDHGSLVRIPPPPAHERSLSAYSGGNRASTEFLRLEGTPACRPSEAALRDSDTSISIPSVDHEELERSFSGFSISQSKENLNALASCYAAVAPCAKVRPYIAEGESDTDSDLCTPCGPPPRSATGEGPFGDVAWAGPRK
T1 sequence (O88944 whole entry): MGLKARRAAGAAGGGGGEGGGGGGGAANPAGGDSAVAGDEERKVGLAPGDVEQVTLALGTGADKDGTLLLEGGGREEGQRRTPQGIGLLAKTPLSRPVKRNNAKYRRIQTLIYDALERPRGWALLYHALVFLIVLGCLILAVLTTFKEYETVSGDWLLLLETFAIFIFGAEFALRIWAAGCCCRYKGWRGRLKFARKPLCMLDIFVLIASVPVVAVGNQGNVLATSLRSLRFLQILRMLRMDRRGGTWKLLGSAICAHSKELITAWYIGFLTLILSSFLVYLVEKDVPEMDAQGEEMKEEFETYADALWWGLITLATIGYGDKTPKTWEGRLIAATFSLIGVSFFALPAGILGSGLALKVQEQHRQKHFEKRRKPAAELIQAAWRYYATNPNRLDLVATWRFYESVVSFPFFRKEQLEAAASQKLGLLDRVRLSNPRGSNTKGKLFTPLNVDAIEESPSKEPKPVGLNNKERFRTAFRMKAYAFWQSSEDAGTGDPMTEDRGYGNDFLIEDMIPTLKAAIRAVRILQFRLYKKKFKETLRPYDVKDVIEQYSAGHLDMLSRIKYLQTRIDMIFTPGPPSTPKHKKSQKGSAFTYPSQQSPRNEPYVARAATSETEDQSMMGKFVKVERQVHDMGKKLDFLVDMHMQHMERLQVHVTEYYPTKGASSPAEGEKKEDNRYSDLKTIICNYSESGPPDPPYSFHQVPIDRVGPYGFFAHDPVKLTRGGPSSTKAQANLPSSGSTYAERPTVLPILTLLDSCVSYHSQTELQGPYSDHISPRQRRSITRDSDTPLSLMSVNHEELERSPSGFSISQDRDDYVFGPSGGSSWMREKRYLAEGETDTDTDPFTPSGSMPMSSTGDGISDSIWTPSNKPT

Turning to `CC(C)NCC(O)COc1ccc(COCCOC(C)C)cc1` (racemic) [BIS, 1-(propan-2-ylamino)-3-[4-(2-propan-2-yloxyethoxymethyl)phenoxy]propan-2-ol], the IC50 (as a rule, the midpoint of a concentration-inhibition curve) in data set [1] was 1.21 µM; in data set [2] it was 6.42 µM.
